According to patent publication US20240058343A1, “TREATMENT OF URTICARIA USING JAK INHIBITORS” (Incyte Corporation, priority 2022, published 2024):
Read-outs that look alike come from different tables or passages of the source.

Key:
[1] = biological target: JAK2 (a.a. 828-1132) (Homo sapiens (Human), UniProt O60674); experiment: In vitro JAK kinase assay (HTRF), JAK2, for JAK2/JAK1 ratio; assay type: biochemical; details: IC50 ratio at 1 mM ATP
Method: (§1) The catalytic activity of JAK1, JAK2 or JAK3 was assayed by measuring the phosphorylation of a biotinylated peptide. The phosphorylated peptide was detected by homogenous time resolved fluorescence (HTRF). IC5os of compounds are measured for each kinase in the 40 microL reactions that contain the enzyme, ATP and 500 nM peptide in 50 mM Tris (pH 7.8) buffer with 100 mM NaCl, 5 mM DTT, and 0.1 mg/mL (0.01%) BSA. […] Reactions are carried out at room temperature for 1 hour and then stopped with 20 μL 45 mM EDTA, 300 nM SA-APC, 6 nM Eu-Py20 in assay buffer (Perkin Elmer, Boston, MA). Binding to the Europium labeled antibody takes place for 40 minutes and HTRF signal was measured on a Fusion plate reader (Perkin Elmer, Boston, MA).

[2] = system: CSU skin; experiment: Ex vivo culture of CSU lesional skin biopsies, RNA-seq gene expression; assay type: cell-based, human
Method: Full-thickness cutaneous skin biopsies were obtained from active disease, untreated, urticaria patients. A single 4mm-punch biopsy was obtained from the same lesion for each patient and longitudinally divided into two pieces. Biopsies were cultured for 24 hours in KBM media+CaCl2, with or without compound (i.e., Compound 1) or DMSO (control). After 24 hours, tissue RNA was isolated for subsequent analysis. RNA extracts were quantified with the Qubit fluorometer (Invitrogen) and quality assessed by TapeStation automated electrophoresis (Agilent Technologies). Total RNA (250 ng) treated with amplification-grade DNase I (Invitrogen) were enriched for non-ribosomal RNA using the NEBNext rRNA Depletion Kit v2 (New England BioLabs). Library preparation was performed with the NEBNext Ultra II Directional RNA Library Prep Kit for Illumina (New England BioLabs) following the manufactures protocol for library preparation of intact or partially degraded RNA (section 2). For comparability, the same protocol was used for all samples. RNA-seq libraries were pooled and paired-end sequencing was performed on the NextSeq 2000 (Illumina) with an average sequencing depth of 200 M reads. FASTQ files were processed with Nextflow RNASeq pipeline (v. 22.10.1). […] The effects of JAK1 inhibition with Compound 1 on DEGs identified in the prior analysis were further evaluated. […]

[3] = biological target: human JAK1 (a.a. 837-1142) (Homo sapiens, UniProt P23458); experiment: In vitro JAK kinase assay (HTRF), JAK1; assay type: biochemical; details: 1 mM ATP
Method: as §1

[4] = system: IgE; details: CSU patients, after 12 weeks, with second-generation H1 antihistamine, cited from earlier work

Sequence of JAK2 (a.a. 828-1132) (O60674 828-1132): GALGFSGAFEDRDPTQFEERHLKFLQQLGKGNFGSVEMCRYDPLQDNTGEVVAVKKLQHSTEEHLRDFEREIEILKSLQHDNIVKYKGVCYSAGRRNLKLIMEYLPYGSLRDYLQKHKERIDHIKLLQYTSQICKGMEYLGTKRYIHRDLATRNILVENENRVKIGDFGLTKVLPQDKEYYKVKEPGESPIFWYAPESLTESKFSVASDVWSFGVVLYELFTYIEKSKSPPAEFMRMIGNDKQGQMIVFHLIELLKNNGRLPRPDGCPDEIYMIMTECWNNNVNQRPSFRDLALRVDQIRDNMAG

Row | Compound | JAK2/JAK1 [1] | IC50 [3] [nM] | PTX3 expression ([2]; CSU skin, 24 hour ex vivo treatment, FIG. 1) | CCL2, S100A8, SELE and PTX3 expression ([2]; cultured CSU skin, 24 hours, vs DMSO control) | patients achieving a complete response [4] | patients achieving a complete response ([4]; listed as omalizumab) [%]
1 | N#CCC1(n2cc(-c3ncnc4[nH]ccc34)cn2)CN(C2CCN(C(=O)c3ccnc(C(F)(F)F)c3F)CC2)C1 [compound 1, {1-{1-[3-Fluoro-2-(trifluoromethyl)isonico-tinoyl]piperidin-4-yl}-3-[4-(7H-pyrrolo[2,3-d]pyrimidin-4-yl)-1H-pyrazol-1-yl]azetidin-3-yl}acetonitrile] | >10 | < 10 | dramatically reduced | altered expression |  | 
2 | N#CC[C@]1(n2cc(-c3ncnc4[nH]ccc34)cn2)C[C@H](N2CCC(Oc3cc(CCO)cc(C(F)(F)F)n3)CC2)C1 [compound 26, {trans-3-(4-{[4-(2-hydroxyethyl)-6-(trifluoromethyl)pyridin-2-yl]oxy}piperidin-1-yl)-1-[4-(7H-pyrrolo[2,3-d]pyrimidin-4-yl)-1H-pyrazol-1-yl]cyclobutyl}acetonitrile] | >10 | < 10 |  |  |  | 
3 | Omalizumab: an anti-IgE monoclonal antibody (administered subcutaneously) |  |  |  |  | approximately 35% | ~35

More lines, main results first:

Row | JAK2/JAK1 [1] | IC50 [3] [nM] | Compound | PTX3 expression ([2]; CSU skin, 24 hour ex vivo treatment, FIG. 1) | CCL2, S100A8, SELE and PTX3 expression ([2]; cultured CSU skin, 24 hours, vs DMSO control) | patients achieving a complete response [4] | patients achieving a complete response ([4]; listed as omalizumab) [%]
4 | >10 | < 10 | C[C@@H](CO)NCc1cc(OC2CCN([C@H]3C[C@](CC#N)(n4cc(-c5ncnc6[nH]ccc56)cn4)C3)CC2)nc(C(F)(F)F)c1 [compound 23, {trans-3-(4-{[4-({[(1S)-2-hydroxy-1-methylethyl]amino}meth-yl)-6-(trifluoromethyl)pyridin-2-yl]oxy}piperidin-1-yl)-1-[4-(7H-pyrrolo[2,3-d]pyrimidin-4-yl)-1H-pyrazol-1-yl]cyclobutyl}acetonitrile] |  |  |  | 
5 | >10 | < 10 | C[C@@H](O)CNCc1cc(OC2CCN([C@H]3C[C@](CC#N)(n4cc(-c5ncnc6[nH]ccc56)cn4)C3)CC2)nc(C(F)(F)F)c1 [compound 24, {trans-3-(4-{[4-({[(2R)-2-hydroxypropyl]amino}methyl)-6-(trifluoromethyl)pyridin-2-yl]oxy}piperidin-1-yl)-1-[4-(7H-pyrrolo[2,3-d]pyrimidin-4-yl)-1H-pyrazol-1-yl]cyclobutyl}acetonitrile] |  |  |  | 
6 | >10 | < 10 | C[C@H](O)CNCc1cc(OC2CCN([C@H]3C[C@](CC#N)(n4cc(-c5ncnc6[nH]ccc56)cn4)C3)CC2)nc(C(F)(F)F)c1 [compound 25, {trans-3-(4-{[4-({[(2S)-2-hydroxypropyl]amino}methyl)-6-(trifluoromethyl)pyridin-2-yl]oxy}piperidin-1-yl)-1-[4-(7H-pyrrolo[2,3-d]pyrimidin-4-yl)-1H-pyrazol-1-yl]cyclobutyl}acetonitrile] |  |  |  | 
